Assay results from patent publication US11613531B2, “Inhibitors of RHO associated coiled-coil containing protein kinase” (Kadmon Corporation, LLC, priority 2017, dated 2023).
Values joined by “and” are separate entries in the source; they are usually repeats but may differ in a detail not shown here. Equal entries are not always repeated. Where two headings read alike, the source gives them in different places.

Assays:
[1] = biological target: Recombinant ROCK2 (amino acids 1-552) (Homo sapiens (Human), UniProt O75116); experiment: Z′-Lyte kinase assay, ROCK2; assay type: biochemical; conditions: for inhibition at 1 µM: 1 μM compound, read-out: ROCK2 % inh. @ [conc]
Protocol: Determination of Compound's ROCK Inhibitory Activity In Vitro (Z'Lyte Assay).
Recombinant ROCK1 (amino acids 1-535) and ROCK2 (amino acids 1-552) proteins were purchased from ThermoFisher Scientific. Compound's activities were measured by Z′-lyte kinase kit (ThermoFisher Scientific) and IC50 was calculated
In vitro activities for the compounds were measured with Z′-lyte kinase kit (ThermoFisher Scientific). The percent inhibition rate was calculated by normalizing the kinase activity value obtained with 1 μM compound treatment against DMSO control value and then applied to the formula, [1-(compound/DMSO)]×100%. IC50s were calculated using the nonlinear regression curve fit function of the GraphPad Prism software with kinase activities data measured with 9 points 2-fold serial dilution of compounds treatment. In cell pMLC IC50s were calculated with data obtained from A7R5 cell experiments. A7R5 cells were treated with 9 points 2-fold serial dilution of compounds and ppMlc (T18/S19) levels were determined to calculate cellular IC50 values of the compounds using the nonlinear regression curve fit function of the GraphPad Prism software. NIH3T3 cells stably expressing ACTA2-promoter-driven-luciferase were applied to measure ROCK compounds functional IC50s in cells. Cells were plated in 96 well plates to confluence and treated with 9 points serial dilution of compounds in combination with TGFβ1 for 24 hr. Luciferase activities were measured and compound's IC50s were calculated using the nonlinear regression curve fit function of the GraphPad Prism software.

[2] = tested on: ppMlc (T18/S19) levels in A7R5 cells; experiment: A7R5 in-cell ELISA (pMLC); assay type: cell-based, Rat; conditions: for inhibition at 10 µM / IC50 / inhibition at 1 µM: Rattus norvegicus, A7R5, A7R5 cells; for inhibition at 10 µM / inhibition at 1 µM: read-out: pMLC % inh A7R5 @ [conc]; for inhibition at 1 µM: 1 μM compound
Summary of the method: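 Cellular IC50 came from a nonlinear regression fit of ppMlc (T18/S19) signal, read by colorimetric in-cell ELISA on fixed cells. Rat A7R5 aortic smooth muscle cells had been exposed for 90 min to compounds in 9-point 2-fold serial dilution, 24 h after seeding.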

[3] = 9 points 2-fold serial dilution

Chain of Recombinant ROCK2 (amino acids 1-552) (O75116 1-552): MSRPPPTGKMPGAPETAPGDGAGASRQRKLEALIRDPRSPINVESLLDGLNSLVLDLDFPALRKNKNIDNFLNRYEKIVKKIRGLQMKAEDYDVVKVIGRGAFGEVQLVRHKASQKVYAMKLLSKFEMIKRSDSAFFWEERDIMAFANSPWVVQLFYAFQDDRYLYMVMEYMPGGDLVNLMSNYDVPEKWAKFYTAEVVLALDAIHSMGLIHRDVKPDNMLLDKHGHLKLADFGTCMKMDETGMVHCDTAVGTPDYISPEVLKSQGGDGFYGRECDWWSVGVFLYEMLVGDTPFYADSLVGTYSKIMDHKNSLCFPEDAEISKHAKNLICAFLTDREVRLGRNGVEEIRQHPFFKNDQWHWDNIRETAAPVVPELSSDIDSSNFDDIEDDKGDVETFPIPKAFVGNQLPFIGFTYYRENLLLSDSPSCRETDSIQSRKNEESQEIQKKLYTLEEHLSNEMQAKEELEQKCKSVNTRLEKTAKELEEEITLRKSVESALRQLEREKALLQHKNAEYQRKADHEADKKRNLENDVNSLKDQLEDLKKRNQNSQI

SMILES | IC50 ([2]; ppMlc (T18/S19)) | inhibition at 1 µM [1] | inhibition at 10 µM ([2]; 10 μM compound) | inhibition at 1 µM [2] | further results
c1cc(Nc2ccc3[nH]ncc3c2)nc(N2CC3CC(C2)N3)n1 [Example 199, N-(2-(3,6-diazabicyclo[3.1.1]heptan-3-yl)pyrimidin-4-yl)-1H-indazol-5-amine] | 525 nM | – | 49.6% | – | IC50 [1, 3]: 151 nM
Cc1cc(Nc2ccc3[nH]ncc3c2)nc(N2CC3(CCNCC3)c3ccccc32)n1 [Example 138, N-(6-methyl-2-(spiro[indoline-3,4′-piperidin]-1-yl)pyrimidin-4-yl)-1H-indazol-5-amine] | – | 9.1% | – | 15.2% | –
c1cc(Nc2ccnc(N3CCNCC3)n2)cc(-c2cn[nH]c2)c1 [Example 347, N-(3-(1H-pyrazol-4-yl)phenyl)-2-(piperazin-1-yl)pyrimidin-4-amine] | – | – | 17% | – | IC50 [1]: > 10000 nM
Cc1cc(Nc2ccc(-c3cn[nH]c3)cc2)nc(N2CCCNCC2)n1 [Example 265, N-(4-(1H-pyrazol-4-yl)phenyl)-2-(1,4-diazepan-1-yl)-6-methylpyrimidin-4-amine] | 1370 nM | 71.2% | 80% | – | –
O=C1Cc2cc(Nc3ccnc(N4CCNCC4)n3)ccc2N1 [Example 365, 5-((2-(piperazin-1-yl)pyrimidin-4-yl)amino)indolin-2-one] | – | – | 5.72% | – | IC50 [1]: > 10000 nM
COc1cnc(N2CCNCC2)nc1Nc1ccc2[nH]ncc2c1 [Example 30, N-(5-methoxy-2-(piperazin-1-yl)pyrimidin-4-yl)-1H-indazol-5-amine] | 1120 nM | 90.6% | 56.4% | – | –
c1ccc(C2CCN(c3nccc(Nc4ccc(-c5cn[nH]c5)cc4)n3)C2)cc1 (stereo not drawn) [Example 270, N-(4-(1H-pyrazol-4-yl)phenyl)-2-(3-phenylpyrrolidin-1-yl)pyrimidin-4-amine] | – | – | – | – | IC50 [1]: 1430 nM; pMLC % inh A7R5 @ [conc] ([2]; A7R5 cells, 10 μM compound): −6.9% and −8.9%
COc1cccc(CN(C)C2CCCN(c3nccc(Nc4ccc5[nH]ncc5c4)n3)C2)c1 (stereo not drawn) [Example 242, N-(2-(3-((3-methoxybenzyl)(methyl)amino)piperidin-1-yl)pyrimidin-4-yl)-1H-indazol-5-amine] | – | – | 41.2% | – | IC50 [1]: 747 nM
Cc1cc(Nc2ccc3[nH]ncc3c2)nc(N2CC3CC(C2)N3)n1 [Example 120, N-(2-(3,6-diazabicyclo[3.1.1]heptan-3-yl)-6-methylpyrimidin-4-yl)-1H-indazol-5-amine] | – | 93.1% | – | 23.4% | –
Fc1cnc(N2CC3CNC3C2)nc1Nc1ccc2[nH]ncc2c1 (stereo not drawn) [Example 174, N-(2-(3,6-diazabicyclo[3.2.0]heptan-3-yl)-5-fluoropyrimidin-4-yl)-1H-indazol-5-amine] | – | – | – | 26.3% | IC50 [1]: 35 nM
O=c1cc(-c2ccc(Nc3ccnc(N4CCNCC4)n3)cc2)cc[nH]1 [Example 360, 4-(4-((2-(piperazin-1-yl)pyrimidin-4-yl)amino)phenyl)pyridin-2(1H)-one] | – | – | 1.69% | – | IC50 [1]: 5200 nM
c1cc(-c2ccc(Nc3nc(N4C5CCC4CNC5)nc4c3CNC4)cc2)ccn1 [Example 306, 2-(3,8-diazabicyclo[3.2.1]octan-8-yl)-N-(4-(pyridin-4-yl)phenyl)-6,7-dihydro-5H-pyrrolo[3,4-d]pyrimidin-4-amine] | – | – | – | – | IC50 [1]: > 1000 nM; IC50 [2]: > 10000 nM
c1cc(Nc2ccc(-c3cnco3)cc2)nc(N2CCNCC2)n1 [Example 358, N-(4-(oxazol-5-yl)phenyl)-2-(piperazin-1-yl)pyrimidin-4-amine] | – | – | 24.3% | – | IC50 [1]: > 10000 nM
c1cc(Nc2ccc3[nH]ncc3c2)nc(N2CC3CCC2CN3)n1 (stereo not drawn) [Example 67, N-(2-(2,5-diazabicyclo[2.2.2]octan-2-yl)pyrimidin-4-yl)-1H-indazol-5-amine] | 1360 nM | 99.2% | – | 31.4% | IC50 [1, 3]: 45 nM
Cc1nc(N2CCNCC2)nc(Nc2ccc3[nH]ncc3c2)c1C [Example 197, N-(5,6-dimethyl-2-(piperazin-1-yl)pyrimidin-4-yl)-1H-indazol-5-amine] | 581 nM | – | 53.8% | – | IC50 [1, 3]: 437 nM

The next lines start with results.

IC50 ([2]; ppMlc (T18/S19)) | inhibition at 1 µM [1] | SMILES | inhibition at 10 µM ([2]; 10 μM compound) | inhibition at 1 µM [2] | further results
2880 nM | 58.1% | Cc1cc(Nc2ccc3[nH]ncc3c2)nc(N2CC(C)NC(C)C2)n1 (stereo not drawn) [Example 113, N-(2-(3,5-dimethylpiperazin-1-yl)-6-methylpyrimidin-4-yl)-1H-indazol-5-amine] | 47.5% | – | –
– | 15.2% | Cc1cc(Nc2ccc3[nH]ncc3c2)nc(N2CCN3CCNCC3C2)n1 (stereo not drawn) [Example 133, N-(6-methyl-2-(octahydro-2H-pyrazino[1,2-a]pyrazin-2-yl)pyrimidin-4-yl)-1H-indazol-5-amine] | – | 3.1% | –
– | 0% | Cc1cnc(N2CC(C)NC(C)C2)nc1Nc1ccc2[nH]ncc2c1 (stereo not drawn) [Example 98, N-(2-(3,5-dimethylpiperazin-1-yl)-5-methylpyrimidin-4-yl)-1H-indazol-5-amine] | 17.4% | – | –
– | 81.8% | Cc1cc(Nc2ccc3[nH]ncc3c2)nc(N2CCC3CNCC3CC2)n1 (stereo not drawn) [Example 132, N-(6-methyl-2-(octahydropyrrolo[3,4-d]azepin-6(1H)-yl)pyrimidin-4-yl)-1H-indazol-5-amine] | – | 19.6% | IC50 [1]: 245 nM
1200 nM | 98.7% | c1cc2[nH]ncc2cc1Nc1nc(N2CCCNCC2)nc2c1CCCC2 [Example 9, 2-(1,4-diazepan-1-yl)-N-(1H-indazol-5-yl)-5,6,7,8-tetrahydroquinazolin-4-amine] | 93.5% | – | –
– | 50.6% | CCC1CN(c2ncc(OC)c(Nc3ccc4[nH]ncc4c3)n2)CCN1 (stereo not drawn) [Example 49, N-(2-(3-ethylpiperazin-1-yl)-5-methoxypyrimidin-4-yl)-1H-indazol-5-amine] | 46.3% | – | –
– | 27.2% | CCC1CCN(c2ncc(C)c(Nc3ccc4[nH]ncc4c3)n2)CCN1 (stereo not drawn) [Example 96, N-(2-(5-ethyl-1,4-diazepan-1-yl)-5-methylpyrimidin-4-yl)-1H-indazol-5-amine] | 14.3% | – | –
– | 52.9% | Cc1nc(N2CCNC(C)CC2)nc(Nc2ccc3[nH]ncc3c2)c1C (stereo not drawn) [Example 25, N-(5,6-dimethyl-2-(5-methyl-1,4-diazepan-1-yl)pyrimidin-4-yl)-1H-indazol-5-amine] | 48.3% | – | –
– | 93.4% | Cc1cc(Nc2ccc3[nH]ncc3c2)nc(N2CC3CNCC(C3)C2)n1 [Example 130, N-(2-(3,7-diazabicyclo[3.3.1]nonan-3-yl)-6-methylpyrimidin-4-yl)-1H-indazol-5-amine] | – | 27.7% | –
997 nM | 82.9% | Cc1cnc(N2CCCNCC2C)nc1Nc1ccc2[nH]ncc2c1 (stereo not drawn) [Example 104, N-(5-methyl-2-(2-methyl-1,4-diazepan-1-yl)pyrimidin-4-yl)-1H-indazol-5-amine] | – | 31.6% | –
– | 21.6% | Cc1cc(Nc2ccc3[nH]ncc3c2)nc(N2CC(C3CCNCC3)c3ccccc32)n1 (stereo not drawn) [Example 137, N-(6-methyl-2-(3-(piperidin-4-yl)indolin-1-yl)pyrimidin-4-yl)-1H-indazol-5-amine] | – | 24.4% | –
1880 nM | 74% | Cc1cnc(N2CCCNCC2)nc1Nc1ccc(-c2cn[nH]c2)cc1 [Example 261, N-(4-(1H-pyrazol-4-yl)phenyl)-2-(1,4-diazepan-1-yl)-5-methylpyrimidin-4-amine] | 86% | – | –
– | 87.1% | COc1cnc(N2CCNCC(C)C2)nc1Nc1ccc2[nH]ncc2c1 (stereo not drawn) [Example 56, N-(5-methoxy-2-(6-methyl-1,4-diazepan-1-yl)pyrimidin-4-yl)-1H-indazol-5-amine] | – | 29% | –
2150 nM | 59.3% | CCC1CNCCN1c1ncc(F)c(Nc2ccc3[nH]ncc3c2)n1 (stereo not drawn) [Example 143, N-(2-(2-ethylpiperazin-1-yl)-5-fluoropyrimidin-4-yl)-1H-indazol-5-amine] | 49.8% | – | –
– | 33.1% | COc1cnc(N2CCNC(C(C)C)CC2)nc1Nc1ccc2[nH]ncc2c1 (stereo not drawn) [Example 47, N-(2-(5-isopropyl-1,4-diazepan-1-yl)-5-methoxypyrimidin-4-yl)-1H-indazol-5-amine] | 45.6% | – | –
1460 nM | 73.8% | CC1CN(c2ncc(Cl)c(Nc3ccc4[nH]ncc4c3)n2)CCN1 (stereo not drawn) [Example 180, N-(5-chloro-2-(3-methylpiperazin-1-yl)pyrimidin-4-yl)-1H-indazol-5-amine] | 62.6% | – | –
312 nM | – | Clc1cnc(N2CCCNCC2)nc1Nc1ccc2[nH]ncc2c1 [Example 4, N-(5-chloro-2-(1,4-diazepan-1-yl)pyrimidin-4-yl)-1H-indazol-5-amine] | 95.3% | – | IC50 [1, 3]: 139 nM
